Experimental data from US20080058213A1, “Benzoxazole Compounds” (priority 2004, published 2008).

How the values were obtained:
Type in all cases: in vivo
[1] = test system: common lambsquaters; assay: Foliage treatment test for upland field (Test Example 3): common lambsquaters; details: foliage treatment at 1.0-2.0 leaf stage of southern crabgrass, examined after 3 weeks
Excerpt: (§1) Evaluation of the herbicidal effect is shown in the following six grades, by comparing the condition of untreated control and growth inhibition (%): • 0: 0%-less than 20% • 1: 20%-less than 40% • 2: 40%-less than 60% • 3: 60%-less than 80% • 4: 80%-less than 100% • 5: 100%.
(§2) Compost mixed soil was filled in 1/3,000 are pots, seeded with southern crabgrass, common lambsquaters, slender amaranth, common purslane, velvetleaf, wheat, corn and soybean. The seeds were covered up with the soil and cultured in a glasshouse kept at 25° C. on the average.
(§3) Wettable powders containing the object compounds (1) as identified in Table 1, which were formulated following Preparation Example 2, were diluted with water to the prescribed dose of the active ingredient, and uniformly sprayed onto the weeds at 1.0-2.0 leaf stage of the southern crabgrass at an application water of 15 liters per are.
(§4) After placing the test pots in a grasshouse kept at 25° C. on the average for 3 weeks, the herbicidal effect was examined.
(§5) Evaluation of the herbicidal effect was conducted in the similar manner to Test Example 1.

[2] = test system: southern crabgrass; assay: Foliage treatment test for upland field (Test Example 3): southern crabgrass; details: foliage treatment at 1.0-2.0 leaf stage of southern crabgrass, examined after 3 weeks
Excerpt: as §1, §2, §3, §4, §5

[3] = test system: soybean; assay: Foliage treatment test for upland field (Test Example 3): phytotoxicity to soybean; details: foliage treatment at 1.0-2.0 leaf stage of southern crabgrass, examined after 3 weeks
Protocol: (§6) Evaluation of phytotoxicity is shown in the following six grades, as compared with the condition of untreated control: • 0: normal growth • 1: little damaged • 2: low damaged • 3: medium damaged • 4: serious damaged • 5: complete killed.
as §2, §4

[4] = test system: corn; assay: Foliage treatment test for upland field (Test Example 3): phytotoxicity to corn; details: foliage treatment at 1.0-2.0 leaf stage of southern crabgrass, examined after 3 weeks
Protocol: as §6, §2, §4

[5] = test system: southern crabgrass (Digitaria ciliaris); assay: Soil treatment test for upland field (Test Example 2): southern crabgrass; details: soil treatment before germination, examined after 3 weeks
Excerpt: as §1
(§7) Upland field soil was filled in 1/3,000 are pots, seeded with southern crabgrass (Digitaria ciliaris), common lambsquaters (Chenopodium album), slender amaranth (Amaranthus viridis), common purslane (Portulaca oleracea), velvetleaf (Abutilon theophrasti), wheat, corn and soybean. The seeds were covered up with the soil.
(§8) Wettable powders containing the object compounds (1) as identified in Table 1, which were formulated following Preparation Example 2, were diluted with adequate amount of water to secure the prescribed dose of the active ingredient, and uniformly sprayed onto the surface soil layer after the seeding and before germination of the weeds, at an application water of 15 liters per are.
(§9) After placing the test pots in a glasshouse which was kept at an average temperature of 25° C. for 3 weeks, the herbicidal effect was examined.
(§10) Evaluations of the herbicidal effect and phytotoxicity were made in the manner similar to those in the above Test Example 1.

[6] = test system: slender amaranth; assay: Foliage treatment test for upland field (Test Example 3): slender amaranth; details: foliage treatment at 1.0-2.0 leaf stage of southern crabgrass, examined after 3 weeks
Excerpt: as §1, §2, §3, §4, §5

[7] = test system: wheat; assay: Foliage treatment test for upland field (Test Example 3): phytotoxicity to wheat; details: foliage treatment at 1.0-2.0 leaf stage of southern crabgrass, examined after 3 weeks
Protocol: as §6, §2, §4

[8] = test system: velvetleaf; assay: Foliage treatment test for upland field (Test Example 3): velvetleaf; details: foliage treatment at 1.0-2.0 leaf stage of southern crabgrass, examined after 3 weeks
Excerpt: as §1, §2, §3, §4, §5

[9] = test system: corn; assay: Soil treatment test for upland field (Test Example 2): phytotoxicity to corn; details: soil treatment before germination, examined after 3 weeks
Excerpt: as §6, §7, §9

[10] = test system: wheat; assay: Soil treatment test for upland field (Test Example 2): phytotoxicity to wheat; details: soil treatment before germination, examined after 3 weeks
Excerpt: as §6, §7, §9

[11] = test system: slender amaranth (Amaranthus viridis); assay: Soil treatment test for upland field (Test Example 2): slender amaranth; details: soil treatment before germination, examined after 3 weeks
Excerpt: as §1, §7, §8, §9, §10

[12] = test system: common lambsquaters (Chenopodium album); assay: Soil treatment test for upland field (Test Example 2): common lambsquaters; details: soil treatment before germination, examined after 3 weeks
Excerpt: as §1, §7, §8, §9, §10

[13] = test system: velvetleaf (Abutilon theophrasti); assay: Soil treatment test for upland field (Test Example 2): velvetleaf; details: soil treatment before germination, examined after 3 weeks
Excerpt: as §1, §7, §8, §9, §10

[14] = test system: common purslane (Portulaca oleracea); assay: Soil treatment test for upland field (Test Example 2): common purslane; details: soil treatment before germination, examined after 3 weeks
Excerpt: as §1, §7, §8, §9, §10

[15] = test system: common purslane; assay: Foliage treatment test for upland field (Test Example 3): common purslane; details: foliage treatment at 1.0-2.0 leaf stage of southern crabgrass, examined after 3 weeks
Excerpt: as §1, §2, §3, §4, §5

[16] = test system: soybean; assay: Soil treatment test for upland field (Test Example 2): phytotoxicity to soybean; details: soil treatment before germination, examined after 3 weeks
Excerpt: as §6, §7, §9

[17] = test system: Japanese bulrush (Scirpus juncoides); assay: Weed control test for paddy field (Test Example 1): Japanese bulrush; details: paddy pots, treated at 1.0 leaf stage of barnyard grass, examined after 3 weeks
Excerpt: (§11) Paddy field soil was filled in 1/10,000 are pots, kneaded with adequate amounts of water and chemical fertilizer, seeded with barnyard grass (Echinochloa crusgalli), Monochoria (Monochoria vaginalis), Japanese bulrush (Scirpus juncoides) and flat sedge (Cyperus serotinus), and further transplanted with 2.0 leaf stage of rice plant. The pots were maintained under the water-filled condition to a depth of 3 cm.
(§12) Wettable powders containing the compounds (1) as identified in Table 1, which were formulated following Production Example 2, were diluted with adequate amount of water and applied to the pots dropwise with pippet at a prescribed dose of the active ingredients per are, at 1.0 leaf stage of the barnyard grass.
(§13) After placing the pots in a glasshouse which was controlled at an average temperature of 25° C. for 3 weeks, herbicidal effect was examined.
as §1

[18] = test system: flat sedge (Cyperus serotinus); assay: Weed control test for paddy field (Test Example 1): flat sedge; details: paddy pots, treated at 1.0 leaf stage of barnyard grass, examined after 3 weeks
Excerpt: as §11, §12, §13, §1

[19] = test system: Monochoria (Monochoria vaginalis); assay: Weed control test for paddy field (Test Example 1): Monochoria; details: paddy pots, treated at 1.0 leaf stage of barnyard grass, examined after 3 weeks
Excerpt: as §11, §12, §13, §1

[20] = test system: barnyard grass (Echinochloa crusgalli); assay: Weed control test for paddy field (Test Example 1): barnyard grass; details: paddy pots, treated at 1.0 leaf stage of barnyard grass, examined after 3 weeks
Excerpt: as §11, §12, §13, §1

[21] = test system: rice plant; assay: Weed control test for paddy field (Test Example 1): phytotoxicity to rice plant; details: paddy pots, treated at 1.0 leaf stage of barnyard grass, examined after 3 weeks
Excerpt: as §11, §12, §13, §6

| SMILES | Herbicidal Effect Common lambsquatters ([1]; dose 2.5 g ai/a) | Herbicidal Effect Common lambsquatters ([1]; dose 5 g ai/a) | Herbicidal Effect southern crabgrass ([2]; dose 2.5 g ai/a) | Herbicidal Effect southern crabgrass ([2]; dose 5 g ai/a) | Phytotoxicity soybean ([3]; dose 2.5 g ai/a) | Phytotoxicity soybean ([3]; dose 5 g ai/a) | Phytotoxicity corn ([4]; dose 2.5 g ai/a) | Phytotoxicity corn ([4]; dose 5 g ai/a) | Herbicidal Effect slender amaranth ([6]; dose 2.5 g ai/a) | Herbicidal Effect slender amaranth ([6]; dose 5 g ai/a) | Phytotoxicity wheat ([7]; dose 2.5 g ai/a) | Phytotoxicity wheat ([7]; dose 5 g ai/a) | Herbicidal Effect velvetleaf ([8]; dose 2.5 g ai/a) | Herbicidal Effect velvetleaf ([8]; dose 5 g ai/a) | Herbicidal Effect common purslane ([15]; dose 2.5 g ai/a) | Herbicidal Effect common purslane ([15]; dose 5 g ai/a) | Herbicidal Effect Japanese bulrush ([17]; dose 2.5 g ai/a) | Herbicidal Effect Japanese bulrush ([17]; dose 5 g ai/a) | Herbicidal Effect Flat sedge ([18]; dose 2.5 g ai/a) | Herbicidal Effect Flat sedge ([18]; dose 5 g ai/a) | also measured |
| --- | --- | --- | --- | --- | --- | --- | --- | --- | --- | --- | --- | --- | --- | --- | --- | --- | --- | --- | --- | --- | --- |
| FC(F)C(F)(F)COCC(=Cc1cccc(C(F)(F)F)c1)c1nc2cc(C(F)(F)F)ccc2o1 [Compound 87] | 5 (100%) | 5 (100%) | 4 (80%-less than 100%) | 5 (100%) | 1 | 1 | 0 | 1 | 5 (100%) | 5 (100%) | 0 | 1 | 4 (80%-less than 100%) | 5 (100%) | 5 (100%) | 5 (100%) |  |  |  |  | Herbicidal Effect southern crabgrass ([5]; dose 2.5 g ai/a): 4 (80%-less than 100%); Herbicidal Effect southern crabgrass ([5]; dose 5 g ai/a): 5 (100%); Phytotoxicity corn ([9]; dose 2.5 g ai/a): 0; Phytotoxicity corn ([9]; dose 5 g ai/a): 0; Phytotoxicity wheat ([10]; dose 2.5 g ai/a): 0; Phytotoxicity wheat ([10]; dose 5 g ai/a): 1; Herbicidal Effect slender amaranth ([11]; dose 2.5 g ai/a): 5 (100%); Herbicidal Effect slender amaranth ([11]; dose 5 g ai/a): 5 (100%); Herbicidal Effect common lambsquaters ([12]; dose 2.5 g ai/a): 5 (100%); Herbicidal Effect common lambsquaters ([12]; dose 5 g ai/a): 5 (100%); Herbicidal Effect velvetleaf ([13]; dose 2.5 g ai/a): 4 (80%-less than 100%); Herbicidal Effect velvetleaf ([13]; dose 5 g ai/a): 5 (100%); Herbicidal Effect common purslane ([14]; dose 2.5 g ai/a): 5 (100%); Herbicidal Effect common purslane ([14]; dose 5 g ai/a): 5 (100%); Phytotoxicity soybean ([16]; dose 2.5 g ai/a): 0; Phytotoxicity soybean ([16]; dose 5 g ai/a): 1 |
| CCOCC(=Cc1cccc(C(F)(F)F)c1)c1nc2cc(F)cc(F)c2o1 [Compound 112] |  |  |  |  |  |  |  |  |  |  |  |  |  |  |  |  | 4 (80%-less than 100%) | 5 (100%) | 3 (60%-less than 80%) | 4 (80%-less than 100%) | Herbicidal Effect Monochoria vaginalis ([19]; dose 2.5 g ai/a): 5 (100%); Herbicidal Effect Monochoria vaginalis ([19]; dose 5 g ai/a): 5 (100%); Herbicidal Effect Barnyard grass ([20]; dose 2.5 g ai/a): 4 (80%-less than 100%); Herbicidal Effect Barnyard grass ([20]; dose 5 g ai/a): 5 (100%); Phytotoxicity Rice plant ([21]; dose 2.5 g ai/a): 0; Phytotoxicity Rice plant ([21]; dose 5 g ai/a): 1 |
| COCC(=Cc1cccc(C(F)(F)F)c1)c1nc2cc(C(C)(C)C)ccc2o1 [Compound 151] | 5 (100%) | 5 (100%) | 4 (80%-less than 100%) | 5 (100%) | 0 | 0 | 0 | 0 | 5 (100%) | 5 (100%) | 0 | 0 | 3 (60%-less than 80%) | 4 (80%-less than 100%) | 5 (100%) | 5 (100%) | 3 (60%-less than 80%) | 5 (100%) | 3 (60%-less than 80%) | 4 (80%-less than 100%) | Herbicidal Effect Monochoria vaginalis ([19]; dose 2.5 g ai/a): 5 (100%); Herbicidal Effect Monochoria vaginalis ([19]; dose 5 g ai/a): 5 (100%); Herbicidal Effect Barnyard grass ([20]; dose 2.5 g ai/a): 4 (80%-less than 100%); Herbicidal Effect Barnyard grass ([20]; dose 5 g ai/a): 5 (100%); Phytotoxicity Rice plant ([21]; dose 2.5 g ai/a): 0; Phytotoxicity Rice plant ([21]; dose 5 g ai/a): 0 |
